Laboratory results published in PubChem BioAssay (NCI).
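Test compounds were applied to cells in 96-well plates for 48 hours at 5 doses. TGI: concentration producing complete growth inhibition.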

Assays:
Test in all cases: NCI anticancer screen, dose series, 48 h
[1] = test system: OVCAR-4 ovarian
[2] = test system: SNB-75 CNS
[3] = test system: SN12C renal
[4] = test system: NCI-H460 lung
[5] = test system: SF-295 CNS
[6] = test system: NCI-H522 lung
[7] = test system: SW-620 colon
[8] = test system: SF-268 CNS
[9] = test system: SK-MEL-5 melanoma
[10] = test system: M14 melanoma
[11] = test system: OVCAR-8 ovarian
[12] = test system: KM20L2 colon
[13] = test system: CCRF-CEM leukemia
[14] = test system: UACC-62 melanoma
[15] = test system: KM12 colon
[16] = test system: SK-MEL-28 melanoma
[17] = test system: RPMI-8226 leukemia
[18] = test system: HS 578T breast
[19] = test system: MDA-MB-231 breast
[20] = test system: MDA-MB-435

Compound	TGI [1]	TGI [2]	TGI [3]	TGI [4]	TGI [5]	TGI [6]	TGI [7]	TGI [8]	TGI [9]	TGI [10]	TGI [11]	TGI [12]	TGI [13]	TGI [14]	TGI [15]	TGI [16]	TGI [17]	TGI [18]	TGI [19]	TGI [20]
COC(=O)CCc1cccnc1/C=N/O	> 100 µM	> 100 µM	> 100 µM	> 100 µM	> 100 µM	> 100 µM	> 100 µM	> 100 µM	> 100 µM	> 100 µM	> 100 µM	> 100 µM	> 100 µM	> 100 µM	> 100 µM	> 100 µM	–	–	–	–
Cc1nc(Nc2ccccc2)sc1C(=O)NNc1ccc([N+](=O)[O-])cc1[N+](=O)[O-]	> 100 µM	95.3 µM	> 100 µM	> 100 µM	> 100 µM	49.3 µM	> 100 µM	> 100 µM	68.5 µM	> 100 µM	> 100 µM	> 100 µM	58.2 µM	> 100 µM	> 100 µM	> 100 µM	–	–	–	–
Brc1ccc2c(c1)C1C(CO2)C(c2ccccc2)=NN1c1ccccc1 (configuration not stated)	–	> 100 µM	–	> 100 µM	> 100 µM	–	> 100 µM	> 100 µM	–	–	> 100 µM	> 100 µM	> 100 µM	–	> 100 µM	> 100 µM	> 100 µM	–	–	–
Cn1nc2ccc3nccc(N(CCO)CCO)c3c2n1	–	> 100 µM	> 100 µM	> 100 µM	> 100 µM	> 100 µM	> 100 µM	> 100 µM	> 100 µM	> 100 µM	> 100 µM	> 100 µM	> 100 µM	> 100 µM	> 100 µM	> 100 µM	> 100 µM	–	–	–
COc1ccc(N2C(=O)[C@@H]3[C@H](C2=O)c2[nH]c4ccccc4c2C2CCC(C(C)(C)C)C[C@@H]23)cc1 (some centres not stated)	–	38 µM	37.5 µM	> 100 µM	29.4 µM	62.7 µM	> 100 µM	> 100 µM	> 100 µM	> 100 µM	42.2 µM	> 100 µM	43.7 µM	49.4 µM	> 100 µM	> 100 µM	> 100 µM	–	–	–
Cn1c2ccccc2n2c3ccccc3c(=O)c(C#N)c12	> 100 µM	> 96.6 µM	> 100 µM	> 61.1 µM	55.1 µM	58.1 µM	> 100 µM	> 100 µM	28.4 µM	> 100 µM	> 44.5 µM	–	> 100 µM	> 58.3 µM	> 100 µM	> 100 µM	> 26.7 µM	66.7 µM	41.9 µM	> 100 µM
CC(C)(Oc1ccc2c(=O)cc(-c3ccccc3)oc2c1)C(=O)Nc1c(Cl)cccc1Cl	–	–	–	> 100 µM	> 100 µM	> 100 µM	> 100 µM	> 100 µM	> 100 µM	> 100 µM	> 100 µM	> 100 µM	> 100 µM	> 100 µM	> 100 µM	> 100 µM	> 100 µM	–	–	–
Clc1ccc(C=NC23CC4CC(CC(C4)C2)C3)cc1Cl	> 10 µM	> 10 µM	> 10 µM	> 10 µM	> 10 µM	> 10 µM	> 10 µM	> 10 µM	> 10 µM	> 10 µM	> 10 µM	–	> 10 µM	> 10 µM	> 10 µM	> 10 µM	> 10 µM	> 10 µM	> 10 µM	> 10 µM
Cc1cc(=O)oc2c3c(ccc12)OC(c1ccc(Br)cc1)CC3=O (configuration not stated)	> 100 µM	18.6 µM	> 100 µM	36.8 µM	23.9 µM	18 µM	23.9 µM	32.1 µM	24.5 µM	31.6 µM	33.7 µM	–	9.11 µM	23.7 µM	33.1 µM	21.3 µM	> 100 µM	38.2 µM	37.8 µM	16.9 µM
Cc1cccc(C)c1NC(=O)CCC(=O)NC(N)=S	–	> 100 µM	> 100 µM	> 100 µM	> 100 µM	> 100 µM	> 100 µM	–	> 100 µM	> 100 µM	> 100 µM	> 100 µM	> 100 µM	> 100 µM	> 100 µM	–	> 100 µM	–	–	–
CC1C=C[C@H](Sc2ccccc2)CC[C@@]1(C)O (some centres not stated)	–	> 100 µM	> 100 µM	> 100 µM	–	–	> 100 µM	–	> 100 µM	> 100 µM	> 100 µM	> 100 µM	> 100 µM	> 100 µM	–	> 100 µM	> 100 µM	–	–	–
O=C(O)Cn1c(=O)[nH]c(=O)c2[nH]cnc21	> 100 µM	> 100 µM	> 100 µM	> 100 µM	–	> 100 µM	> 100 µM	> 100 µM	> 100 µM	> 100 µM	> 100 µM	> 100 µM	> 100 µM	> 100 µM	> 100 µM	> 100 µM	–	–	–	–
CCc1cccc(C(C)CC)c1NC(=O)C(=O)C(CC(=O)Nc1ccc(Cl)c(Cl)c1)C(=O)OC (configuration not stated)	> 100 µM	> 100 µM	> 100 µM	> 100 µM	> 100 µM	> 100 µM	> 100 µM	> 100 µM	–	> 100 µM	> 100 µM	> 100 µM	> 100 µM	18.9 µM	> 100 µM	> 100 µM	> 100 µM	–	–	–
O=[N+]([O-])c1ccc2c(c1)nc(Cc1ccc(Cl)cc1)n2C[C@@H]1CCCN2CCCCC12 (some centres not stated)	> 44 µM	28.3 µM	27.6 µM	31.2 µM	29.3 µM	27.4 µM	> 59 µM	6.27 µM	29.5 µM	25.9 µM	30.4 µM	–	> 44.5 µM	28.7 µM	27.9 µM	30.1 µM	> 100 µM	43.3 µM	32.6 µM	28.3 µM
